Source: ChEMBL document CHEMBL1137921, “Substrate analogs for the investigation of deoxyxylulose 5-phosphate reductoisomerase inhibition: synthesis and evaluation” (Bioorg Med Chem Lett, 2004)

T1: 1-deoxy-D-xylulose 5-phosphate reductoisomerase (Synechocystis sp. (strain PCC 6803 / Kazusa), UniProt Q55663)
T1 sequence (Q55663 whole entry): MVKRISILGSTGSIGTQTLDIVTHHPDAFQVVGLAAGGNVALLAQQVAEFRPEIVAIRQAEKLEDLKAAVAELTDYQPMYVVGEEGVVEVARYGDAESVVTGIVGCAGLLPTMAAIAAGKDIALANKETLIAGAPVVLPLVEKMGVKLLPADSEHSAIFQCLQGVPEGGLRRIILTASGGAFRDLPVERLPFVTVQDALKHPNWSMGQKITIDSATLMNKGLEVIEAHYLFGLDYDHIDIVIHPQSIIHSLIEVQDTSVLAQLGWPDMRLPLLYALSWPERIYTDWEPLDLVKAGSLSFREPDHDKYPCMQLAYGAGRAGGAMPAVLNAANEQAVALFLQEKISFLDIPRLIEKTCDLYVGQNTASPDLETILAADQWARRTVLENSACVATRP

T2: 1-deoxy-D-xylulose 5-phosphate reductoisomerase (Escherichia coli K-12, UniProt P45568)
T2 sequence (P45568 whole entry): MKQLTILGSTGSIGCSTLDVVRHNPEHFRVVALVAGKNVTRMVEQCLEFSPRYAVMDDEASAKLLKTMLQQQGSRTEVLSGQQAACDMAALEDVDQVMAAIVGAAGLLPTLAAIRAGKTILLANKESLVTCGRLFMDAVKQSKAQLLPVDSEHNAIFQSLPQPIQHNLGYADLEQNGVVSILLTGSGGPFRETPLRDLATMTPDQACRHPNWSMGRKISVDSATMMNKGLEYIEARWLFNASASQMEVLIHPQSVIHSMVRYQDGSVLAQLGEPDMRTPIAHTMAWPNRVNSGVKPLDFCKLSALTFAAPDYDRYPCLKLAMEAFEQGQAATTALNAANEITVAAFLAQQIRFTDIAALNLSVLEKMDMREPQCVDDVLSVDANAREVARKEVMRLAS

B1: 1-deoxy-D-xylulose 5-phosphate reductoisomerase (Synechocystis sp. (strain PCC 6803 / Kazusa)), Q55663 (protein)
chain: T1 sequence (Q55663 whole entry)

Columns and labels:
[1] = biological target: T1, 1-deoxy-D-xylulose 5-phosphate reductoisomerase; experiment: Binding affinity against Synechocystis strain PCC6803 DXP reductoisomerase; parameters: species or system Synechocystis sp. PCC 6803
[2] = biological target: T2, 1-deoxy-D-xylulose 5-phosphate reductoisomerase; experiment: Inhibitory activity against Escherichia coli deoxyxylulose 5-phosphate reductoisomerase
[3] = substrate: CC(=O)[C@@H](O)[C@H](O)CCP(=O)(O)O; experiment: Michaelis-Menten constant for Synechocystis strain PCC6803 DXP reductoisomerase; settings: Synechocystis sp. PCC 6803

| Molecule | Ki [1] | Ki [2] | Km [3] |
| --- | --- | --- | --- |
| CCC(=O)[C@@H](O)[C@H](O)COP(=O)(O)O | 630 µM |  |  |
| NC(=O)[C@@H](O)[C@H](O)COP(=O)(O)O | 90 µM |  |  |
| O=CN(O)CCCP(=O)(O)O [FOSMIDOMYCIN] | 0.021 µM |  |  |
| CC(=O)[C@@H](O)[C@@H](O)COP(=O)(O)O | 180 µM |  |  |
| CC(=O)C[C@H](O)COP(=O)(O)O | 150 µM | 800 µM |  |
| CC(=O)[C@@H](O)CCOP(=O)(O)O | 30 µM | 120 µM |  |
| B1 |  |  | 690 µM |
